From ChEMBL document CHEMBL1781916, “p38alpha mitogen-activated protein kinase inhibitors: optimization of a series of biphenylamides to give a molecule suitable for clinical progression” (J Med Chem, 2009)
One block for each molecule: values may come before it.

Key:
[1] = (§1) Oral bioavailability in Lewis rat at 1 mg/kg; assay type: ADME, organism-based; conditions: Lewis, in vivo
[2] = (§2) Clearance in Lewis rat at 1 mg/kg, iv; assay type: ADME, organism-based; set-up: dose 1 mg/kg, route intravenous; conditions: Lewis, in vivo
[3] = AUC in Lewis rat 0.25 mg/kg, po; conditions: Lewis, plasma
[4] = Half life in Lewis rat at 1 mg/kg, iv; assay type: ADME, organism-based; set-up: dose 1 mg/kg, route intravenous; conditions: in vivo
Rattus norvegicus [5] = assay: as §2; assay type: ADME, organism-based; set-up: dose 1 mg/kg, route intravenous; conditions: in vivo
Rattus norvegicus [6] = assay: Volume of distribution at steady state in Lewis rat at 1 mg/kg, iv; assay type: ADME, organism-based; set-up: dose 1 mg/kg, route intravenous; conditions: in vivo
Rattus norvegicus [7] = assay: as §1; assay type: ADME, organism-based; conditions: in vivo
[8] = Ratio of drug level in brain to plasma in Lewis rat at 1 mg/kg, iv and 1 mg/kg, po; assay type: ADME, organism-based; conditions: read-out: BPR
[9] = Oral bioavailability in mouse; assay type: ADME, organism-based; conditions: in vivo
[10] = Oral bioavailability in dog; assay type: ADME, organism-based, Canis lupus familiaris; conditions: in vivo
[11] = Oral bioavailability in Lewis rat at 0.25 mg/kg, po; assay type: ADME, organism-based; conditions: in vivo
Rattus norvegicus [12] = assay: AUC in Lewis rat 0.25 mg/kg, po; conditions: in vivo
[13] = Half life in Lewis rat at 0.25 mg/kg, iv and 0.25 mg/kg, po; assay type: ADME, organism-based; conditions: in vivo
[14] = Oral bioavailability in cynomolgus monkey at 1.4 mg/kg; assay type: ADME, organism-based, Macaca fascicularis; conditions: in vivo
[15] = Clearance in Lewis rat at 0.25 mg/kg, iv; assay type: ADME, organism-based; set-up: dose 0.25 mg/kg, route intravenous; conditions: in vivo

bioavailability [1]: > 95%
clearance [2]: 2.5 mL/min/kg
AUC [3]: 810 ng·h/mL
half-life [4]: 1.9 h
Structure (SMILES): Cc1c(F)cc(C(=O)NC2CC2)cc1-c1ccc(C(=O)NCC2CC2)cn1

AUC [3]: 23 ng·h/mL
Structure (SMILES): Cc1c(F)cc(C(=O)NC2CC2)cc1-c1ccc(C(=O)N[C@H](C)C(C)(C)C)cn1

bioavailability [1]: 99%
clearance (Rattus norvegicus [5]): 1.5 mL/min/kg
half-life [4]: 3 h
Structure (SMILES): Cc1ccc(C(=O)NC2CC2)cc1-c1ccc(C(=O)NCC2CC2)cn1

The next lines start with the molecule.

Structure (SMILES): Cc1c(F)cc(C(=O)NC2CC2)cc1-c1ccc(C(=O)NCC(C)(C)C)cn1 [LOSMAPIMOD]
Vdss (Rattus norvegicus [6]): 0.9 L/kg
F (Rattus norvegicus [7]): 71%
Kp [8]: 0.1
bioavailability [9]: 59%
bioavailability [10]: 55%
bioavailability [11]: 51%
AUC (Rattus norvegicus [12]): 220 ng·h/mL
half-life [13]: 1.1 h
bioavailability [14]: 35%
half-life [4]: 1.2 h

Structure (SMILES): Cc1c(F)cc(C(=O)NC2CC2)cc1-c1ccc(C(=O)N[C@@H](C)C(C)C)cn1
AUC [3]: 8 ng·h/mL

Structure (SMILES): Cc1c(F)cc(C(=O)NC2CC2)cc1-c1ccc(C(=O)NCC(C)C)cn1
bioavailability [11]: 56%
clearance [15]: 6.4 mL/min/kg
AUC [3]: 360 ng·h/mL
half-life [13]: 1.1 h

Structure (SMILES): Cc1c(F)cc(C(=O)NC2CC2)cc1-c1ccc(C(=O)N[C@@H](C)C(C)(C)C)cn1
AUC [3]: 6 ng·h/mL

Structure (SMILES): Cc1c(F)cc(C(=O)NC2CC2)cc1-c1ccc(C(=O)N[C@H](C)C(C)C)cn1
AUC [3]: 50 ng·h/mL
